Measured values from PubChem BioAssay (NCI).
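Compound exposure: 48 hours, 5 concentrations, 96-well plates. At the TGI there is no net growth.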

Legend:
Experiment in all cases: NCI anticancer screen, dose series, 48 h
[1] = test system: 786-0 renal
[2] = test system: A498 renal
[3] = test system: A549 NSCLC
[4] = test system: ACHN renal
[5] = test system: BT-549 breast
[6] = test system: CAKI-1 renal
[7] = test system: CCRF-CEM leukemia
[8] = test system: COLO 205 colon
[9] = test system: DU-145 prostate
[10] = test system: EKVX NSCLC
[11] = test system: HCC-2998 colon
[12] = test system: HCT-116 colon
[13] = test system: HCT-15 colon
[14] = test system: HL-60(TB) leukemia
[15] = test system: HOP-62 NSCLC
[16] = test system: HOP-92 NSCLC
[17] = test system: HS 578T breast
[18] = test system: HT29 colon
[19] = test system: IGROV1 ovarian
[20] = test system: K-562 leukemia
[21] = test system: KM12 colon
[22] = test system: LOX IMVI melanoma
[23] = test system: M14 melanoma
[24] = test system: MALME-3M melanoma
[25] = test system: MCF7 breast
[26] = test system: MDA-MB-231 breast
[27] = test system: MDA-MB-435
[28] = test system: MDA-N
[29] = test system: MOLT-4 leukemia
[30] = test system: NCI-H226 lung
[31] = test system: NCI-H23 lung
[32] = test system: NCI-H460 lung
[33] = test system: NCI-H522 lung
[34] = test system: NCI/ADR-RES ovarian
[35] = test system: OVCAR-3 ovarian
[36] = test system: OVCAR-4 ovarian
[37] = test system: OVCAR-5 ovarian
[38] = test system: OVCAR-8 ovarian
[39] = test system: PC-3 prostate
[40] = test system: RPMI-8226 leukemia
[41] = test system: RXF 393 renal
[42] = test system: SF-268 CNS
[43] = test system: SF-295 CNS
[44] = test system: SF-539 CNS
[45] = test system: SK-MEL-2 melanoma
[46] = test system: SK-MEL-28 melanoma
[47] = test system: SK-MEL-5 melanoma
[48] = test system: SK-OV-3 ovarian
[49] = test system: SN12C renal
[50] = test system: SNB-19 CNS
[51] = test system: SNB-75 CNS
[52] = test system: SR leukemia
[53] = test system: SW-620 colon
[54] = test system: T-47D breast
[55] = test system: TK-10 renal
[56] = test system: U251 CNS
[57] = test system: UACC-257 melanoma
[58] = test system: UACC-62 melanoma
[59] = test system: UO-31 renal

Measured: TGI

C[C@H](CCC(=O)NCC(=O)O)[C@H]1CC[C@H]2[C@@H]3[C@H](O)C[C@@H]4C[C@H](O)CC[C@]4(C)[C@H]3CC[C@]12C
> 100 µM: all assays above

CCNC(=S)N/N=C(\C)c1cccc(C)n1
23.8 µM: [47]
45.3 µM: [2]
26.4 µM: [32]
53.1 µM: [12] | [16]
26 µM: [23] | [33]
73.1 µM: [9]
83.2 µM: [56]
28.9 µM: [11]
45.1 µM: [44]
53.6 µM: [14]
41.3 µM: [58]
47.9 µM: [30]
17.2 µM: [42]
not listed: [6] | [36] | [40]
> 100 µM: all other assays above
